Results as given in US20110118298A1, “COMPOSITIONS, KITS, AND METHODS FOR IDENTIFICATION, ASSESSMENT, PREVENTION, AND THERAPY OF CANCER” (INFINITY PHARMACEUTICALS, INC., priority 2009, published 2011).
“Also recorded” adds a separate entry of the source. Where a name gives a salt, the structure may show the parent alone.

Experiments:
[1] = test system: Colo320HSR, NCI-H716, SNU-C1, C2BBe1 xenografts; assay: Colorectal xenografts wild type for both KRAS and BRAF; format: in vivo, Nu/Nu mice; conditions: 100 mg/kg three times weekly, oral
Description: Preparation of a suspension of this solid amorphous dispersion was made by levigating the solid with glycerol with a spatula followed by homogenization in a 1% hydroxyethylcellulose solution in a high speed homogenizer for 10 minutes to provide in vehicle (1% hydroxyethylcellulose, 5% glycerol). The suspension was used to administer 17-AG in the below described in vivo experiments.
In the third set of studies, the Colo320HSR (FIG. 22A), NC1—H716 (FIG. 22B), SNU-C1 (FIG. 22C) and C2BBe1 (FIG. 22D) cell lines were employed all of which are wild type for both KRAS and BRAF. 5-6 week old Nu/Nu mice were implanted subcutaneously with 10×10^6 cells for each cell line used and dosing by oral gavage commenced after tumors had reached approximately 150-200 mm^3 on a dosing schedule of three times weekly (M, W, F) with a suspension of 50% 17-AG in HPMC-AS-HG dispersion in vehicle (1% hydroxyethylcellulose, 5% glycerol) at a dose level of 100 mg/kg 17-AG (IPI-493) as compared to vehicle control.

[2] = Phase II study of IPI-504 monotherapy in advanced NSCLC: adverse events and laboratory abnormalities; format: in vivo, human
Description: Treatment consisted of a 30-minute infusion of intravenous IPI-504 on days 1, 4, 8 and 11 of a 21-day cycle. Therapy continued until progressive disease (PD), intolerable side effects, or elective withdrawal. A total of 76 patients were enrolled. The starting dose was 400 mg/m^2 for 75 patients. In April 2009, the dose for patients who were on study (19 patients) was lowered to 225 mg/m^2, due to hepatotoxicities observed at the 400 mg/m^2 dose in a separate trial of IPI-504 in patients with gastrointestinal stromal tumors (GIST) (Demetri G. D. et al. Final results from a phase III study of IPI-504 (retaspimycin hydrochloride) versus placebo in patients with gastrointestinal stromal tumors (GIST) following failure of kinase inhibitor therapies. Paper presented at: Gastrointestinal Cancers Symposium; Jan. 22-24, 2010, 2010; Orlando, Fla.), and the last enrolled patient started at a dose of 225 mg/m^2.
All patients were assessed for safety by history, physical examination, blood chemistries, liver function tests and blood counts, at baseline and prior to each infusion. Amylase and lipase were assessed if there were symptoms of pancreatitis. Adverse events were graded using the NCl common toxicity criteria version 3.0 (NCl. Common terminology criteria for adverse events (CTCAE) version 3.0 Aug. 9, 2006). Slit lamp eye examinations were performed during screening and electrocardiograms were obtained during screening and before and after the first infusion, to evaluate for keratitis and QTc prolongation, respectively. Radiographic evaluation of tumor response by CT-scan was performed after every 2 cycles. All films were reviewed and independently assessed by a central radiology core laboratory.
Summary statistics were used to describe safety and included all patients treated with IPI-504. PFS was defined as the time from enrollment to progressive disease or death, censored at the last known follow-up, and was calculated with the Kaplan-Meier method, following the intent-to-treat principle.

[3] = test system: squamous cell carcinoma (SCC); assay: Clinical trial, response to IPI-504 by histology; format: in vivo, human
Text: This example describes the results from a clinical trial that assessed the efficacy of IPI-504 in patients with squamous cell carcinoma (SCC).
FIGS. 13A-13B depict waterfall plots showing responses to IPI-504 according to cancer subtypes analyzed by histology. The cancers examined were adenocarcinoma (shown as #1), bronchioloalveolar carcinoma (BAC) (shown as #2), large cell lung cancer (shown as #3), squamous cell carcinoma (shown as #4), unknown (shown as #5) and control (shown as #6). Each bar represents one patient. The y-axis of FIG. 13A represents % of tumor volume change from baseline.

[4] = maximum post-baseline grade based on laboratory values

With `CO[C@H]1/C=C\C=C(/C)C(=O)NC2=CC(=O)C(N)=C(C[C@@H](C)C[C@H](OC)[C@H](O)[C@@H](C)/C=C(\C)[C@@H]1OC(N)=O)C2=O` [IPI-493, 17-AG] the “effect on tumor growth in wild-type kRAS/bRAF models” value [1] was “no detactable effect on TGI; also recorded: did not lead to tumor growth inhibition” and the “effect on tumor growth in wild-type kRAS/bRAF models” value ([1]; listed as 17-AG) was “no detectable difference in tumor volume”.
With `C=CCNc1c(O)cc2c(O)c1C[C@@H](C)C[C@H](OC)[C@H](O)[C@@H](C)/C=C(\C)[C@H](OC(N)=O)[C@@H](OC)/C=C\C=C(/C)C(=O)N2` [IPI-504, retaspimycin hydrochloride] the “Abdominal pain: patients with Grade 1 or 2 event” value ([2]; 76 patients) was 18 (23.7) n (%), the “Abdominal pain: patients with any event” value ([2]; 76 patients) was 18 (23.7) n (%) and the “Abdominal pain: patients with ≧Grade 3 event” value ([2]; 76 patients) was 1 (1.3) n (%). For the same compound, the “Anorexia: patients with Grade 1 or 2 event” value ([2]; 76 patients) was 18 (23.7) n (%), the “Anorexia: patients with any event” value ([2]; 76 patients) was 19 (25.0) n (%) and the “Anorexia: patients with ≧Grade 3 event” value ([2]; 76 patients) was 4 (5.3) n (%). The “Arthralgia: patients with Grade 1 or 2 event” value ([2]; 76 patients) was 17 (22.4) n (%), the “Arthralgia: patients with any event” value ([2]; 76 patients) was 19 (25.0) n (%) and the “Arthralgia: patients with ≧Grade 3 event” value ([2]; 76 patients) was 2 (2.6) n (%). The “Back pain: patients with Grade 1 or 2 event” value ([2]; 76 patients) was 16 (21.1) n (%), the “Back pain: patients with any event” value ([2]; 76 patients) was 16 (21.1) n (%) and the “Back pain: patients with ≧Grade 3 event” value ([2]; 76 patients) was 0 (0.0) n (%). The “Constipation: patients with Grade 1 or 2 event” value ([2]; 76 patients) was 18 (23.7) n (%), the “Constipation: patients with any event” value ([2]; 76 patients) was 18 (23.7) n (%) and the “Constipation: patients with ≧Grade 3 event” value ([2]; 76 patients) was 2 (2.6) n (%). The “Cough: patients with Grade 1 or 2 event” value ([2]; 76 patients) was 24 (31.6) n (%), the “Cough: patients with any event” value ([2]; 76 patients) was 24 (31.6) n (%) and the “Cough: patients with ≧Grade 3 event” value ([2]; 76 patients) was 2 (2.6) n (%). For the same compound, the “Dehydration: patients with Grade 1 or 2 event” value ([2]; 76 patients) was 11 (14.5) n (%), the “Dehydration: patients with any event” value ([2]; 76 patients) was 14 (18.4) n (%) and the “Dehydration: patients with ≧Grade 3 event” value ([2]; 76 patients) was 3 (3.9) n (%). For the same compound, the “Diarrhoea: patients with Grade 1 or 2 event” value ([2]; 76 patients) was 37 (48.7) n (%), the “Diarrhoea: patients with any event” value ([2]; 76 patients) was 40 (52.6) n (%) and the “Diarrhoea: patients with ≧Grade 3 event” value ([2]; 76 patients) was 8 (10.5) n (%). The “Dizziness: patients with Grade 1 or 2 event” value ([2]; 76 patients) was 12 (15.8) n (%), the “Dizziness: patients with any event” value ([2]; 76 patients) was 12 (15.8) n (%) and the “Dizziness: patients with ≧Grade 3 event” value ([2]; 76 patients) was 0 (0.0) n (%). The “Dyspnoea: patients with Grade 1 or 2 event” value ([2]; 76 patients) was 15 (19.7) n (%), the “Dyspnoea: patients with any event” value ([2]; 76 patients) was 18 (23.7) n (%) and the “Dyspnoea: patients with ≧Grade 3 event” value ([2]; 76 patients) was 6 (7.9) n (%). The “Fatigue: patients with Grade 1 or 2 event” value ([2]; 76 patients) was 41 (53.9) n (%), the “Fatigue: patients with any event” value ([2]; 76 patients) was 44 (57.9) n (%) and the “Fatigue: patients with ≧Grade 3 event” value ([2]; 76 patients) was 6 (7.9) n (%). For the same compound, the “Headache: patients with Grade 1 or 2 event” value ([2]; 76 patients) was 19 (25.0) n (%), the “Headache: patients with any event” value ([2]; 76 patients) was 19 (25.0) n (%) and the “Headache: patients with ≧Grade 3 event” value ([2]; 76 patients) was 0 (0.0) n (%). For the same compound, the “Infusion site pain: patients with Grade 1 or 2 event” value ([2]; 76 patients) was 15 (19.7) n (%), the “Infusion site pain: patients with any event” value ([2]; 76 patients) was 15 (19.7) n (%) and the “Infusion site pain: patients with ≧Grade 3 event” value ([2]; 76 patients) was 0 (0.0) n (%). The “Insomnia: patients with Grade 1 or 2 event” value ([2]; 76 patients) was 12 (15.8) n (%), the “Insomnia: patients with any event” value ([2]; 76 patients) was 12 (15.8) n (%) and the “Insomnia: patients with ≧Grade 3 event” value ([2]; 76 patients) was 0 (0.0) n (%). For the same compound, the “Musculoskeletal chest pain: patients with Grade 1 or 2 event” value ([2]; 76 patients) was 11 (14.5) n (%), the “Musculoskeletal chest pain: patients with any event” value ([2]; 76 patients) was 13 (17.1) n (%) and the “Musculoskeletal chest pain: patients with ≧Grade 3 event” value ([2]; 76 patients) was 3 (3.9) n (%). The “Myalgia: patients with Grade 1 or 2 event” value ([2]; 76 patients) was 18 (23.7) n (%), the “Myalgia: patients with any event” value ([2]; 76 patients) was 19 (25.0) n (%) and the “Myalgia: patients with ≧Grade 3 event” value ([2]; 76 patients) was 1 (1.3) n (%). For the same compound, the “Nausea: patients with Grade 1 or 2 event” value ([2]; 76 patients) was 41 (53.9) n (%), the “Nausea: patients with any event” value ([2]; 76 patients) was 43 (56.6) n (%) and the “Nausea: patients with ≧Grade 3 event” value ([2]; 76 patients) was 6 (7.9) n (%). The “Pyrexia: patients with Grade 1 or 2 event” value ([2]; 76 patients) was 12 (15.8) n (%), the “Pyrexia: patients with any event” value ([2]; 76 patients) was 12 (15.8) n (%) and the “Pyrexia: patients with ≧Grade 3 event” value ([2]; 76 patients) was 0 (0.0) n (%). The “Urine colour abnormal: patients with Grade 1 or 2 event” value ([2]; 76 patients) was 22 (28.9) n (%), the “Urine colour abnormal: patients with any event” value ([2]; 76 patients) was 22 (28.9) n (%) and the “Urine colour abnormal: patients with ≧Grade 3 event” value ([2]; 76 patients) was 0 (0.0) n (%). For the same compound, the “Vision blurred: patients with Grade 1 or 2 event” value ([2]; 76 patients) was 12 (15.8) n (%), the “Vision blurred: patients with any event” value ([2]; 76 patients) was 12 (15.8) n (%) and the “Vision blurred: patients with ≧Grade 3 event” value ([2]; 76 patients) was 0 (0.0) n (%). For the same compound, the “Vomiting: patients with Grade 1 or 2 event” value ([2]; 76 patients) was 25 (32.9) n (%), the “Vomiting: patients with any event” value ([2]; 76 patients) was 28 (36.8) n (%) and the “Vomiting: patients with ≧Grade 3 event” value ([2]; 76 patients) was 6 (7.9) n (%). For the same compound, the “deaths on study considered related to study drug” value ([2]; 76 patients) was “Three”, the “patients who discontinued therapy for adverse events” value ([2]; 76 patients) was 14% and the “patients with dose reductions for toxicity” value ([2]; 76 patients) was 12%. For the same compound, the bilirubin elevation ([2]; Grade 3 or 4) was “No Grade 3 or 4 bilirubin elevation”, the ALT elevations ([2]; Grade 3 or greater) was 7% and the AST elevations ([2]; Grade 3 or greater) was 9%. For the same compound, the alkaline phosphatase elevations ([2]; Grade 3 or greater) was 5%, the tolerability ([2]; IPI-504 monotherapy, hydrochloride) was “generally well tolerated” and the “alanine aminotransferase (ALT) elevations” value ([2]; any grade) was 41%. For the same compound, the alkaline phosphatase elevations ([2]; any grade) was 62%, the “aspartate aminotransferase (AST) elevations” value ([2]; any grade) was 49% and the “ALT (liver function test): patients with Grade 1 or 2 event” value [2, 4] was 26 (34.2) n (%). For the same compound, the “ALT (liver function test): patients with any event” value [2, 4] was 31 (40.8) n (%), the “ALT (liver function test): patients with ≧Grade 3 event” value [2, 4] was 5 (6.6) n (%) and the “AST (liver function test): patients with Grade 1 or 2 event” value [2, 4] was 30 (39.5) n (%). The “AST (liver function test): patients with any event” value [2, 4] was 37 (48.7) n (%), the “AST (liver function test): patients with ≧Grade 3 event” value [2, 4] was 7 (9.2) n (%) and the “Alkaline phosphatase (liver function test): patients with Grade 1 or 2 event” value [2, 4] was 43 (56.6) n (%). The “Alkaline phosphatase (liver function test): patients with any event” value [2, 4] was 47 (61.8) n (%), the “Alkaline phosphatase (liver function test): patients with ≧Grade 3 event” value [2, 4] was 4 (5.3) n (%) and the “Total bilirubin (liver function test): patients with Grade 1 or 2 event” value [2, 4] was 3 (3.9) n (%). The “Total bilirubin (liver function test): patients with any event” value [2, 4] was 3 (3.9) n (%), the “Total bilirubin (liver function test): patients with ≧Grade 3 event” value [2, 4] was 0 (0.0) n (%) and the “transient, non-toxic purple-colored urine” value ([2]; share of patients) was “About a third”. For the same compound, the “patients showing a partial response (PR)” value ([3]; out of 7 patients with SCC) was 3 patients and the “objective response rate (ORR)” value ([3]; patients with SCC) was 43%.
